Data set [1] relates to jumping behavior induced by Methamphetamine and L-DOPA. Put plainly: Activity for inhibiting jumping behavior in mouse induced by Methamphetamine and L-DOPA. The conditions noted are these: read-out: ED50 value, inhibition of jumping behavior. The data set is classed as in vivo, mouse (male, ddy-strain). The method, then: (B) Activity for inhibiting jumping behavior in mouse induced by Methamphetamine and L-DOPA
Individual male mice of ddy-strain having a body weight of 17 to 25 g were used. The mice were not fed for 24 hours. One test group consisted of 6 mice. A compound to be tested was administered orally. 40Minutes after the administration 4 mg/kg of Methamphetamine d-N-α-dimethylphenthylamine was intraperitonerally administered, further 15 minutes after the administration of Methamphetamine, 400 mg/kg of L-DOPA was intraperitonerally administered. 60 Minutes after the administration of L-DOPA, (3-(3,4-dihydroxyphenyl)alanine) the mouse was placed in a glass beaker of 2 liters capacity, and the number of jumping of the mouse was recorded. The activity for inhibiting jumping behavior of the test compound was determined as positive in case of number of jumping performed by the administered mouse counted 10 or less. While, the activity for inhibiting jumping behabior of the test compound was determined as negative in case the number of jumping performed by the administered mouse recorded over 10. The effective dosage (ED50 value: mg/kg) of the test compound which gives 3 mice were positive over 6 mice of one test group was calculated. The number of jumping performed by the mouse being administered with physiological saline solution as the reference was 150 to 200 per hour. (Cf. H. Lal, F. C. Colpaert, P. Laduron: European J. Pharmacol., 30, 113-116 (1975)).

Data set [2] concerns epinephrine. Put plainly: Activity for antagonizing epinephrine in mouse. The data set is classed as in vivo, mouse (male, ddy strain). As to conditions: read-out: ED50 value, dose allowing half the animals to survive. How it is done:
(C) Activity for antagonizing epinephrine in mouse
Individual male mice of ddy strain having 17 to 20 g of body weight were used. The mice were abstained from eating for 24 hours. One test group consist of 10 mice. A compound to be tested was administered orally. One hour after the administration, 40 mg/kg of epinephrine was intraperitonerally administered. […] All of 10 mice administered physiological saline solution as the reference group were dead within a few minutes after the administration of epinephrine. (Cf. Loew, E. R. and Micetich, A., J. Pharmacol. Exp. Ther., 93, 434-443 (1948)).

The test system of data set [3] is Halothane anesthesia. Nature of the data set: Halothane anesthesia increasing activity. It counts as in vivo, mouse (male, ddy-strain). The conditions noted are these: 16 mg/kg oral, 1 hour before 4% Halothane for 3 minutes; righting reflex. How it is done: Male mice of ddy-strain a having about 20 g body weight were used. One test group consists of 10 mice. An aqueous Gummi Arabicum suspension of test compound (80 mg of a compound to be tested and 1 g of Gummi Arabicum/100 ml of physiological NaCl solution) was administered orally to each mouse at the dosage of 16 mg of test compound/kg body. One hour after the administration, each mouse was placed in gas respiration chamber (13×13×24 cm) and oxygen gas containing 4% of Halothane (2-brome-2-chloro-1,1,1-trifluoroethane) was flown into the chamber at the velocity of 2/min for 3 minutes. A mouse anaesthetized was taken out from the chamber and the time between the introduction of anesthesia to waking was measured by righting reflex as the index. To mice of control group, 1% Gummi Arabicum aqueous physiological solution was orally administered at the dosage of 0.1 ml/kg body.

In data set [4] the test system is palpebral ptosis. Nature of the data set: Palpebral ptosis test in mouse. As to conditions: 64 mg/kg oral, 1 hour; score 0 (wide open eyes) to 8 (eyes completely closed); mean of 10 mice. The data set is classed as in vivo, mouse (male, ddy-strain). How it is done: (D) Activity of palpebral ptosis test in mouse
Individual male mice of ddy-strain having 18 to 20 g of body weight were used. The mice were abstained from eating for 24 hours. One test group consists of 10 mice. […] One hour after the administration, the state of palpebral ptosis of the mouse were observed and evaluated on the basis of the following score system. The mean value was calculated from the scores of 10 mice.
Score Degree of palpebral ptosis
8 Eyes completely closed.

Data set [5] relates to male rats. The conditions noted are these: rat, in vivo, po. The method, then:
Each of the following compound of the general formula in the present invention was administered orally to male rats to determine the acute toxicity (LD50 mg/kg).

Where [6] appears, read: oral, Methamphetamine 4 mg/kg i.p. and L-DOPA 400 mg/kg i.p., positive = 10 or fewer jumps.
Where [7] appears, read: oral, 1 hour before epinephrine 40 mg/kg i.p., survival at 24 hours.

Where a name gives a salt, the structure may show the parent alone. Read-outs that look alike come from different tables or passages of the source.

A word on the ED50: it is the midpoint of the dose-response relation. `CN(C)CCCN1c2ccccc2Sc2ccc(Cl)cc21` [Chlorpromazine, 2-chloro-N,N-dimethyl-10H-phenothiazine-10-propanamine, reference compound]: the ED50 in data set [1] (po) was found to be 7.6 mg/kg; in data set [2] (po, 24 h) it was 10.6 mg/kg.
For `CCC(C(=O)c1ccc2[nH]c(=O)ccc2c1)N1CCN(c2cccc(Cl)c2)CC1` (stereo not drawn) [Compound 4, 6-{1-Oxo-2-[4-(3-chlorophenyl)-1-piperazinyl]butyl}-carbostyril], in data set [3], the “Time (minutes) between introduction of anesthesia to waking” value (“Time (minutes) between introduction” for short) was found to be 9.7 min. Also, the 50% effective dose (ED50) in data set [1] (po) worked out at 4.05 mg/kg. Also, in data set [4], the “Score obtained (Mean value), degree of palpebral ptosis” value stood at 2.33.
As to `O=C1CCc2cc(C(O)CCCN3CCN(c4cccc(Cl)c4)CC3)ccc2N1` (stereo not drawn) [Compound 5, 6-{1-Hydroxy-4-[4-(3-chlorophenyl)-1-piperazinyl]butyl}-3,4-dihydrocarbostyril], the “Acute toxicity (LD50)” value in data set [5] was 500 mg/kg. Moreover, in data set [3], the “Time (minutes) between introduction” value was 13.0 min. Further, the median effective dose (ED50) in data set [1] (setting [6]) came to 1.95 mg/kg.
With `Cc1cccc(N2CCN(CCC(O)c3ccc4c(c3)CCC(=O)N4)CC2)c1C` (stereo not drawn) [Compound 6, 6-{1-Hydroxy-3-[4-(2,3-dimethylphenyl)-1-piperazinyl]-propyl}-3,4-dihydrocarbostryril], the “Acute toxicity (LD50)” value in data set [5] came out at 500 mg/kg. Further, in data set [3], the “Time (minutes) between introduction” value was found to be 8.2 min.
`O=C1CCc2cc(C(=O)CCN3CCN(c4cccc(Cl)c4)CC3)ccc2N1` [Compound 7, 6-{1-Oxo-3-[4-(3-chlorophenyl)-1-piperazinyl]-propyl}-3,4-dihydrocarbostyril.monohydrochloride]: in data set [5], the “Acute toxicity (LD50)” value amounted to 500 mg/kg. In data set [1] (setting [6]), the median effective dose (ED50) is 1.34 mg/kg. Besides, in data set [4], the “Score obtained (Mean value), degree of palpebral ptosis” value came out at 1.33.
`O=C1CCc2cc(C=CCN3CCN(c4cccc(Cl)c4)CC3)ccc2N1` [Compound 8, 6-{3-[4-(3-Chlorophenyl)-1-piperazinyl]-1-propenyl}-3,4-dihydrocarbostyril]: in data set [5], the “Acute toxicity (LD50)” value came to 500 mg/kg. Also, the ED50 in data set [1] (setting [6]) turned out to be 1.02 mg/kg.
For `CCOc1ccccc1N1CCN(CC=Cc2ccc3c(c2)CCC(=O)N3)CC1` [Compound 9, 6-{3-[4-(2-Ethoxyphenyl)-1-piperazinyl]-1-propenyl}-3,4-dihydrocarbostyril], the “Acute toxicity (LD50)” value in data set [5] amounted to 500 mg/kg. The ED50 in data set [1] (setting [6]) was found to be 0.12 mg/kg; in data set [2] (setting [7]) it was 0.005 mg/kg.
`Cc1cccc(N2CCN(CC=Cc3ccc4c(c3)CCC(=O)N4)CC2)c1` [Compound 10, 6-{3-[4-(3-Methylphenyl)-1-piperazinyl]-1-propenyl}-3,4-dihydrocarbostyril]: the “Acute toxicity (LD50)” value in data set [5] was determined as 500 mg/kg. The median effective dose (ED50) in data set [1] (setting [6]) stood at 6.02 mg/kg.
Turning to `O=C1CCc2cc(C=CCCN3CCN(c4ccccc4)CC3)ccc2N1` [Compound 11, 6-[4-(4-Phenyl-1-piperazinyl)-1-butenyl]-3,4-dihydrocarbostyril], in data set [5], the “Acute toxicity (LD50)” value was determined as 500 mg/kg. The median effective dose (ED50) in data set [1] (setting [6]) is 1.6 mg/kg; in data set [2] (setting [7]), 4 to 8 mg/kg.
Regarding `CCOc1ccccc1N1CCN(CCC=Cc2ccc3c(c2)CCC(=O)N3)CC1` [Compound 12, 6-{4-[4-(2-Ethoxyphenyl)-1-piperazinyl]-1-butenyl}-3,4-dihydrocarbostyril], the ED50 in data set [1] (setting [6]) was determined as 0.056 mg/kg; in data set [2] (setting [7]) it was 0.005 mg/kg.
On to `O=C1CCc2cc(C=CCN3CCN(c4ccc(Cl)cc4)CC3)ccc2N1` [Compound 13, 6-{3-[4-(4-chlorophenyl)-1-piperazinyl]-1-propenyl}-3,4-dihydrocarbostyril], for which the “Acute toxicity (LD50)” value in data set [5] came to 500 mg/kg. For the same compound, the ED50 in data set [1] (setting [6]) is 4.16 mg/kg.
Regarding `O=C1CCc2cc(CCCCN3CCN(c4ccccc4Cl)CC3)ccc2N1` [Compound 14, 6-{4-[4-(2-Chlorophenyl)-1-piperazinyl]-butyl}-3,4-dihydrocarbostyril], in data set [1] (setting [6]), the ED50 worked out at 3.23 mg/kg.
Consider `CCOc1ccccc1N1CCN(CCCCc2ccc3c(c2)CCC(=O)N3)CC1` [Compound 15, 6-{4-[4-(2-Ethoxyphenyl)-1-piperazinyl]-butyl}-3,4-dihydrocarbostyril], for which the “Acute toxicity (LD50)” value in data set [5] stood at 500 mg/kg. In addition, the ED50 stood at 0.39 mg/kg in data set [1] (setting [6]) and 0.71 mg/kg in data set [2] (setting [7]).
For the compound `CCOc1ccccc1N1CCN(CCCc2ccc3c(c2)CCC(=O)N3)CC1` [Compound 16, 6-{3-[4-(2-Ethoxyphenyl)-1-piperazinyl]-propyl}-3,4-dihydrocarbostyril], the “Acute toxicity (LD50)” value in data set [5] amounted to 500 mg/kg. In addition, the ED50 was found to be 0.24 mg/kg in data set [1] (setting [6]) and 0.02 mg/kg in data set [2] (setting [7]).
Regarding `COc1ccccc1N1CCN(CCCc2ccc3c(c2)CCC(=O)N3)CC1` [Compound 17, 6-{3-[4-(2-Methoxyphenyl)-1-piperazinyl] -propyl}-3,4-dihydrocarbostyril], the “Acute toxicity (LD50)” value in data set [5] came to 500 mg/kg. In addition, the ED50 in data set [2] (setting [7]) was 0.29 mg/kg.
Regarding `O=C1CCc2cc(CCCN3CCN(c4ccccc4)CC3)ccc2N1` [Compound 18, 6-[3-(4-Phenyl-1-piperazinyl)propyl]-3,4-dihydrocarbostyril], the “Acute toxicity (LD50)” value in data set [5] came to 500 mg/kg. Besides, the ED50 was found to be 0.34 mg/kg in data set [1] (setting [6]) and 0.21 mg/kg in data set [2] (setting [7]).
On to `COc1ccccc1N1CCN(CC=Cc2ccc3c(c2)CCC(=O)N3)CC1` [Compound 19], for which the “Acute toxicity (LD50)” value in data set [5] was found to be 500 mg/kg. Also, the results for the ED50 in data set [1] (setting [6]) and in data set [2] (setting [7]) were 0.79 mg/kg and 0.1 mg/kg, respectively.
Take `O=C1CCc2cc(C(=O)CCCN3CC=C(c4ccc(Cl)cc4)CC3)ccc2N1` [Compound 25, 6-{1-Oxo-4-[4-(4-chlorophenyl)-1,2,5,6-tetrahydropyridyl]butyl}-3,4-dihydrocarbostiryl]: the median effective dose (ED50) in data set [1] (po) stood at 9.56 mg/kg.
On to `Cc1ccc(C2=CCN(CCC(=O)c3ccc4c(c3)CCC(=O)N4)CC2)cc1` [Compound 26, 6-{1-Oxo-3-[4-(4-methylphenyl)-1,2,5,6-tetrahydropyridyl]propyl}-3,4-dihydrocarbostiryl], for which the ED50 in data set [1] (po) came to 10.3 mg/kg.
For `COc1ccccc1C1=CCN(CC=Cc2ccc3c(c2)CCC(=O)N3)CC1` [Compound 27, 6-{3-[4-(2-Methoxyphenyl)-1,2,5,6-tetrahydropyridyl]-1-propenyl}-3,4-dihydrocarbostyril monooxalate], in data set [1] (po), the ED50 was 1.25 mg/kg.
On to `O=C1CCc2cc(C(=O)CCCN3CC=C(c4ccccc4)CC3)ccc2N1` [Compound 28, 6-[1-Oxo-4-(4-phenyl-1,2,5,6-tetrahydropyridyl)butyl]-3,4-dihydrocarbostyril], for which the ED50 in data set [1] (po) is 8.89 mg/kg.
`COc1ccccc1C1CCN(CCCc2ccc3c(c2)CCC(=O)N3)CC1.O=C(O)C(=O)O` [Compound 29, 6-{3-[4-(2-Methoxyphenyl)-1-piperidyl]-propyl}-3,4-dihydrocarbostyril monooxalate]: in data set [1] (setting [6]), the 50% effective dose (ED50) was 2.01 mg/kg.
With `O=c1ccc2cc(CCCCN3CCN(c4ccccc4)CC3)ccc2[nH]1` [Compound 30, 6-[4-(4-Phenyl-1-piperazinyl)butyl]-carbostyril], in data set [5], the “Acute toxicity (LD50)” value amounted to 500 mg/kg. Moreover, the median effective dose (ED50) in data set [1] (setting [6]) came to 0.56 mg/kg.
For the compound `CCOc1ccccc1N1CCN(CCC=Cc2ccc3[nH]c(=O)ccc3c2)CC1` [Compound 31, 6-{4-[4-(2-Ethoxyphenyl)-1-piperazinyl]-1-butenyl}carbostyril], in data set [1] (setting [6]), the 50% effective dose (ED50) stood at 0.14 mg/kg.
Consider `CCC(C(O)c1ccc2[nH]c(=O)ccc2c1)N1CCN(c2cccc(Cl)c2)CC1` (stereo not drawn) [Compound 32, 6-{1-Hydroxy-2-[4-(3-chlorophenyl)-1-piperazinyl]butyl}carbostyril], for which, in data set [1] (setting [6]), the ED50 amounted to 4.86 mg/kg.
